The source of these data is patent US12692265B2, “Solid state forms of Ensifentrine and process for preparation thereof” (ASSIA CHEMICAL INDUSTRIES LTD., priority 2021, dated 2026).

Format in all cases: physicochemical
Data set [1] can be described thus: Storage stability at different relative humidities and temperatures, 6 months (XRPD). The method, then: (§1) X-ray diffraction was performed on X-Ray powder diffractometer: • Bruker D8 Advance; CuKα radiation (λ=1.5418 Å); Lynx eye detector; laboratory temperature 22-25° C.; PMMA specimen holder ring with silicon low background. Prior to analysis, the samples were gently ground by means of mortar and pestle in order to obtain a fine powder. The ground sample was adjusted into a cavity of the sample holder and the surface of the sample was smoothed by means of a cover glass. Measurement Parameters: • Scan range: 2-40 degrees 2-theta; • Scan mode: continuous; • Step size: 0.05 degrees; • Time per step: 0.5 s; • Sample spin: 30 rpm; • Sample holder: PMMA specimen holder ring with silicon low background.
Samples of Ensifentrine ethane-1,2-disulfonate form ES2 were subjected to conditions of different relative humidities at different temperatures. XRPD analysis was performed on the samples after 6 months.

Data set [2] in a line: Grinding experiments (strong grinding, solvent drop grinding; XRPD). Conditions: for XRPD analysis results: 2 minutes. The procedure:
as §1
Samples of Ensifentrine ethane-1,2-disulfonate form ES2 were subjected to strong grinding, and to solvent drop grinding in water and ethanol. Grinding was carried out on the samples alone, or in the presence of ethanol or water. In these experiments, about 20 mg of the sample is placed in a mortar and ground with a pestle for 2 minutes. The solvent, when used, as added to the crystalline material before grinding, in a volume of 10 microlitres. XRPD analysis performed on each of the samples after the grinding experiment, confirmed no change in the starting material (Table 3): […]

Data set [3] can be described thus: Thermal stability (heating, XRPD). The settings on record: heating up to 100° C. for 30 minutes. The procedure: as §1
XRPD analysis of the sample confirmed no change in the starting material (Table 4): […]

For the substance Ensifentrine ethane-1,2-disulfonate, the XRPD analysis results is given as “No change” in data set [1] (25° C., 60% RH); “No change” in data set [1] (40° C., 75% RH); “No change” in data set [2] (Solvent-drop grinding (ethanol), 10 microlitres); “No change” in data set [2] (Solvent-drop grinding (water), 10 microlitres); “No change” in data set [2] (Strong grinding, about 20 mg, mortar and pestle). In addition, in data set [2] (each of the samples: alone, with ethanol, with water), the “XRPD analysis after the grinding experiment” value is listed as “no change”. Further, the “XRPD analysis after heating” value in data set [3] is recorded as “no change”.
